Experimental findings from US20230338532A1, “IMMUNOSUPPRESSANT DRUG RESISTANT ARMORED TCR T CELLS FOR IMMUNE-THERAPY OF ORGAN TRANSPLANT PATIENTS” (priority 2020, published 2023) are described below.

What all share (type): cell-based, human
Data set [1] relates to HepG2.2.15 cells. Kind of data set: TNF-α production of TCR T cells after overnight co-culture with HepG2.2.15 cells. The note with it: clinically relevant concentration. The procedure:
FIGS. 1A and 1B show functional profiles of 5183-electroporated T cells treated with tacrolimus. Cytokine production (TNF-α as a representative) of drug-treated S183 TCR-T cells was evaluated following overnight co-culture with HepG2.215 cells. FIG. 1A: Concatenated dot plots (left panel) from representative experiments stained for TNF-α production. […] Non-treated electroporated T cells used as negative control. FIG. 1B: Drug effect on T cell cytolysis determined through impedance measurement. The Normalized Cell Index plot was converted to an area under the curve, and quantified to measure the percentage of cytolysis ˜45 hours after S183-TCR T cell addition. […] Statistical significance was evaluated by 2-tailed t test. […]
FIG. 3A: S183 TCR and mutant CnB m-RNA were co-electroporated and T cell function was evaluated following overnight co-culture with HepG2.2.15 cells. FIG. 3B: Viability and TCR expression of engineered T cells evaluated 24 hours post-electroporation. […] FIG. 3C: Frequency of TNF-α-producing CD8+ cells out of total live CD8+ T cells were quantified following overnight incubation with the targets (n=3). […]
FIG. 5A: Sequence information of siRNA specific for FKBP1A. FIG. 5B: Frequency of TNF-α-producing CD8+ cells out of total live CD8+ T cells were quantified following overnight incubation with the targets and different concentrations of Tacrolimus (n=3). […]

The subject of data set [2] is T cells. Kind of data set: Viability of engineered T cells exposed to immunosuppressants. The note with it: clinically relevant concentration, 48 hours exposure.
Procedure: Intracellular cytokine staining and viability analysis were performed at the indicated time after treatment.
The subject of data set [3] is HepG2.2.15 cells. Kind of data set: T cell cytolysis by impedance measurement (real time killing assay). The note with it: clinically relevant doses, FIG. 1B. The procedure:
FIGS. 1A and 1B show functional profiles of 5183-electroporated T cells treated with tacrolimus. Cytokine production (TNF-α as a representative) of drug-treated S183 TCR-T cells was evaluated following overnight co-culture with HepG2.215 cells. FIG. 1A: Concatenated dot plots (left panel) from representative experiments stained for TNF-α production. […] Non-treated electroporated T cells used as negative control. FIG. 1B: Drug effect on T cell cytolysis determined through impedance measurement. The Normalized Cell Index plot was converted to an area under the curve, and quantified to measure the percentage of cytolysis ˜45 hours after S183-TCR T cell addition. Each dot represents one individual experiment in bar graphs. Statistical significance was evaluated by 2-tailed t test. […]
FIGS. 6A, 6B and 6C show dual-resistant TCR-redirected T cells were produced by electroporating 3 mRNAs (HBV TCR, CnB mutant and IMPDH mutant) into the T cells. FIG. 6A: Frequency of TNF-α-producing CD8+ cells out of total live CD8 T cells was quantified following overnight incubation with the targets (n=3). […] FIG. 6B: T cell cytolysis determined by real time killing assay in the presence and absence of both drugs. […] FIG. 6C: Viability of dual resistant TCR-T cells evaluated 72 hours after exposure to clinically relevant concentration of both drugs.

Regarding `COc1c(C)c2c(c(O)c1C/C=C(\C)CCC(=O)OCCN1CCOCC1)C(=O)OC2` [MMF, Mycophenolate mofetil], the “effect on T cell function and killing” value in data set [1] is “does not impair T cell function and killing”. The “effect on viability of modified TCR-T cells” value in data set [2] is reported as “markedly decreases the viability”.
Regarding `C=CC[C@@H]1/C=C(\C)C[C@H](C)C[C@H](OC)[C@H]2O[C@@](O)(C(=O)C(=O)N3CCCC[C@H]3C(=O)O[C@H](/C(C)=C/[C@@H]3CC[C@@H](O)[C@H](OC)C3)[C@H](C)[C@@H](O)CC1=O)[C@H](C)C[C@@H]2OC` [Tacrolimus], the “effect on T cell TNF-α production” value in data set [1] (12 hours incubation with HepG2.2.15 cells) is “can impair T cell TNF-α production”. In data set [3], the “loss of cytolytic activity of treated T cells” value was ≤ 50 % of the non-treated control.
